Patent US10168342B2, “Lipid probes and uses thereof” (THE SCRIPPS RESEARCH INSTITUTE, priority 2015, dated 2019)
Like-named read-outs stand apart in the source and are kept apart here.

Assays:
[1] = molecular target: AEA-DA lipid probe targets in Neuro2a cells (Mus musculus, UniProt P29391)
[2] = molecular target: T1, AEA-DA lipid probe targets in Neuro2a cells (Mus musculus, UniProt P51174)
T1 sequence (P51174 31-430): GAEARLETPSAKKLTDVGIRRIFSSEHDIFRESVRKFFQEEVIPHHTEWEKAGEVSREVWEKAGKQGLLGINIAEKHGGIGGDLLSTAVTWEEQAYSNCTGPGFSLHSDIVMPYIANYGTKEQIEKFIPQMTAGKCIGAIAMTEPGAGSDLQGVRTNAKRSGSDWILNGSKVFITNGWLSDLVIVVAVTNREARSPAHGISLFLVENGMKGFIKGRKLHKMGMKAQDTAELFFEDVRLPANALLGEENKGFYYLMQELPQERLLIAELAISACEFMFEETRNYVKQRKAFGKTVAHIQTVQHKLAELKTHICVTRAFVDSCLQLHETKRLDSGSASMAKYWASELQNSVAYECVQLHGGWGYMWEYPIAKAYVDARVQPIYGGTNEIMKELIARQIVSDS

[3] = molecular target: T2, AEA-DA lipid probe targets in Neuro2a cells (Mus musculus, UniProt Q5XKN4)
T2 sequence (Q5XKN4 1-183): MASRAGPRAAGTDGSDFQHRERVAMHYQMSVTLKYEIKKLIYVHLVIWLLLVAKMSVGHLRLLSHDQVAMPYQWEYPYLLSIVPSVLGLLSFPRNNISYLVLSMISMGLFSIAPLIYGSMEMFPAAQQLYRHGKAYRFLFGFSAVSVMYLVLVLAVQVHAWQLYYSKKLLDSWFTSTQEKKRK

[4] = molecular target: AEA-DA lipid probe targets in Neuro2a cells (Mus musculus, UniProt Q60864)
[5] = molecular target: T3, AEA-DA lipid probe targets in Neuro2a cells (Mus musculus, UniProt Q6GV12)
T3 sequence (Q6GV12 26-332): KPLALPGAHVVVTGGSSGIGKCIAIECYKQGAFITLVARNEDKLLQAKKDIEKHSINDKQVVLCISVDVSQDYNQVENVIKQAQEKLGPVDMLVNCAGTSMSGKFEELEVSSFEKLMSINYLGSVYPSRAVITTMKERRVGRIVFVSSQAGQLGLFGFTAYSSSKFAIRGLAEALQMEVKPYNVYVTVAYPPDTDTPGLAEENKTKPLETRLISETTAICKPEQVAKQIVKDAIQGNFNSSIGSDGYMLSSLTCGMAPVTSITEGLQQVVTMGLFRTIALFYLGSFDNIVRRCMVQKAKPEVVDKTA

[6] = molecular target: T4, AEA-DA lipid probe targets in Neuro2a cells (Mus musculus, UniProt Q7TMK9)
T4 sequence (Q7TMK9 1-623): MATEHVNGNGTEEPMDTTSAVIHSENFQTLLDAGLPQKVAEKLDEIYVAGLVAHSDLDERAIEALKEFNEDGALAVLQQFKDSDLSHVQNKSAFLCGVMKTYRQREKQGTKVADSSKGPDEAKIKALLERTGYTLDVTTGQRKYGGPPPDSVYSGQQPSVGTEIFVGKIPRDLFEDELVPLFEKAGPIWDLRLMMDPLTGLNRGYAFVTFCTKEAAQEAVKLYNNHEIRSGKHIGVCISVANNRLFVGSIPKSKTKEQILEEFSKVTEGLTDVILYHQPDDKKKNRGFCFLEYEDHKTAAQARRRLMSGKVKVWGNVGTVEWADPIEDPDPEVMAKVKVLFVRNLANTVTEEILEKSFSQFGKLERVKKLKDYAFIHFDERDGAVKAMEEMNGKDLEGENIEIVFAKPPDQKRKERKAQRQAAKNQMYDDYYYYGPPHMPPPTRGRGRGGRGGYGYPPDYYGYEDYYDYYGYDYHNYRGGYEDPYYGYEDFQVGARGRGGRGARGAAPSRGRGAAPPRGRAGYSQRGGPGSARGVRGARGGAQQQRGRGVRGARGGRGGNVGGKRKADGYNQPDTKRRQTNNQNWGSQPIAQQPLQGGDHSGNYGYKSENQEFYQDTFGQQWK

[7] = molecular target: T5, AEA-DA lipid probe targets in Neuro2a cells (Mus musculus, UniProt Q8BXV2)
T5 sequence (Q8BXV2 1-253): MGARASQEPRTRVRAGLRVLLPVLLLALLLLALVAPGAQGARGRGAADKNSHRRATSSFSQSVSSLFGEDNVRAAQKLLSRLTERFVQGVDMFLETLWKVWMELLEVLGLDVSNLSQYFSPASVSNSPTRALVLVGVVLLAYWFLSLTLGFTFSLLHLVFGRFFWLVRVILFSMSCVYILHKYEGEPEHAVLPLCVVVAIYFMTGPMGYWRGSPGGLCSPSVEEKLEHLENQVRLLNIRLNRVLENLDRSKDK

[8] = molecular target: AEA-DA lipid probe targets in Neuro2a cells (Mus musculus, UniProt Q8C0L6)
Sequence of AEA-DA lipid probe targets in Neuro2a cells (Mus musculus, UniProt Q8C0L6) (Q8C0L6 whole entry): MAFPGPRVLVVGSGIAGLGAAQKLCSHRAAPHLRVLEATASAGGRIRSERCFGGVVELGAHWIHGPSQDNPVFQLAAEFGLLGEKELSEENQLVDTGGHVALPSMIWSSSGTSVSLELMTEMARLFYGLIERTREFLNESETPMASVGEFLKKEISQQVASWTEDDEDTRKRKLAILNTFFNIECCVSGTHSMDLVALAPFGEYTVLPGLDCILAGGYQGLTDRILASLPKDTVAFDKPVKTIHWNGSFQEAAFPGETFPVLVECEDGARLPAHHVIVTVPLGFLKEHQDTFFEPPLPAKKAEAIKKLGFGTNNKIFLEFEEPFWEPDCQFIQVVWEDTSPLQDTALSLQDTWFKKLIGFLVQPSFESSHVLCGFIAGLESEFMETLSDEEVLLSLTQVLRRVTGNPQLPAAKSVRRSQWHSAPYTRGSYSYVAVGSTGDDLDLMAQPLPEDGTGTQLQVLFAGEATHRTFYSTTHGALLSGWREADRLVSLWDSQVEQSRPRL

[9] = molecular target: AEA-DA lipid probe targets in Neuro2a cells (Mus musculus, UniProt Q91VE6)
Sequence of AEA-DA lipid probe targets in Neuro2a cells (Mus musculus, UniProt Q91VE6) (Q91VE6 whole entry): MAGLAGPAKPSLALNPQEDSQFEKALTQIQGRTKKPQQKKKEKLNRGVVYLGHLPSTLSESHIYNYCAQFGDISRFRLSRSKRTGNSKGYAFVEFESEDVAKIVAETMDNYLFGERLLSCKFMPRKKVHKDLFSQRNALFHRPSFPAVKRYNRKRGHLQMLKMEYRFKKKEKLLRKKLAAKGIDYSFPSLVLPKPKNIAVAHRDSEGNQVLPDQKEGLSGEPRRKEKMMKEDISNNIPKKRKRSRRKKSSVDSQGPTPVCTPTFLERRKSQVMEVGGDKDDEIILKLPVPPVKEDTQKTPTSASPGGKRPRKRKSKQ

[10] = molecular target: T6, AEA-DA lipid probe targets in Neuro2a cells (Mus musculus, UniProt Q9DBL9)
T6 sequence (Q9DBL9 1-351): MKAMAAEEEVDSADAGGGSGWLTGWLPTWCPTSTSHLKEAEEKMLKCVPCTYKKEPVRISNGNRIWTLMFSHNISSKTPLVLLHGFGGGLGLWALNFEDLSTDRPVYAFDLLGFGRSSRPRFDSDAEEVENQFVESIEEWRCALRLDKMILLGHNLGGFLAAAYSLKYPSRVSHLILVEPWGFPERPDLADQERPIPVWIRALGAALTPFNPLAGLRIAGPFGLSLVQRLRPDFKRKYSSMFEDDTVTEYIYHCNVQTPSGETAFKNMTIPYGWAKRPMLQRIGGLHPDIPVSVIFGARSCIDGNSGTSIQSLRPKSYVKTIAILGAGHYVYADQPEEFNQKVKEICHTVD

[11] = molecular target: AEA-DA lipid probe targets in Neuro2a cells (Mus musculus, UniProt Q9EPE9)
Sequence of AEA-DA lipid probe targets in Neuro2a cells (Mus musculus, UniProt Q9EPE9) (Q9EPE9 whole entry): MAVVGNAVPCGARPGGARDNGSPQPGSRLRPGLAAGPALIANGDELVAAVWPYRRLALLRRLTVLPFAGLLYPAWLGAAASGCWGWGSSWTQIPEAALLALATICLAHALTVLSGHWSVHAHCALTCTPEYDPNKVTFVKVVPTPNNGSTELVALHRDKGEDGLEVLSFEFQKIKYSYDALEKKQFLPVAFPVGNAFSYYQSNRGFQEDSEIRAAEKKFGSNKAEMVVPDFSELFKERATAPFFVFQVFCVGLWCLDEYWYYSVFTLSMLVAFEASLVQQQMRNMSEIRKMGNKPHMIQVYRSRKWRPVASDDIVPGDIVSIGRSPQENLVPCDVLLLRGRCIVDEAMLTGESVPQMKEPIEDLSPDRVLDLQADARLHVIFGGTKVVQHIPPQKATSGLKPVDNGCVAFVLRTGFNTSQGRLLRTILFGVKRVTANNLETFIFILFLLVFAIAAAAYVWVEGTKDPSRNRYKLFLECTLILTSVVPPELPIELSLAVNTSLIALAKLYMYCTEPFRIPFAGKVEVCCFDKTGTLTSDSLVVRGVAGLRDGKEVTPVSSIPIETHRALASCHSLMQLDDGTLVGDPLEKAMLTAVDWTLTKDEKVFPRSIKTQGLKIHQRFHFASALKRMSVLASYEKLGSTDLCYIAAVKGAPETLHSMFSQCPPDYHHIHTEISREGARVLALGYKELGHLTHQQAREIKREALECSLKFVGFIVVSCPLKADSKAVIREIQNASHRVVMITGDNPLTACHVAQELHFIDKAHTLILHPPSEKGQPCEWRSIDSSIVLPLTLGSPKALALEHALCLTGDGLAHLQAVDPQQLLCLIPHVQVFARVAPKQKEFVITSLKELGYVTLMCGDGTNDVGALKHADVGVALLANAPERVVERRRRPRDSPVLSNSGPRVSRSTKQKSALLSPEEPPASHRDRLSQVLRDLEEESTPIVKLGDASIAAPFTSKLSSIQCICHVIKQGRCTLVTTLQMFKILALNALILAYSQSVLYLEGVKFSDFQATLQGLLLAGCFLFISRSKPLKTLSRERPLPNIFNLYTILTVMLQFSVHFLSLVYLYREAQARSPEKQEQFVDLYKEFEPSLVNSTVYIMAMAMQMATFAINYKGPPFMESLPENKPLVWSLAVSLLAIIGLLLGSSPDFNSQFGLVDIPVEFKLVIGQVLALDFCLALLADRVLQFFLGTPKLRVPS

Sequence of AEA-DA lipid probe targets in Neuro2a cells (Mus musculus, UniProt P29391) (P29391 whole entry): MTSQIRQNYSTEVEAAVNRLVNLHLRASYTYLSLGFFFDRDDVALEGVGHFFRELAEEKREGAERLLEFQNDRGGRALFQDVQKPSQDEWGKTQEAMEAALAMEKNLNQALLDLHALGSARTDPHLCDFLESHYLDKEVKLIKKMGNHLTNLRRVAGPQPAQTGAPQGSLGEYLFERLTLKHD

CCCCC/C=C\C/C=C\C/C=C\C/C=C\CCCC(=O)NCCO [AEA, anandamide, reference compound]
SILAC ratio Ftl1 ([1]; competitor 200 μM): 1.6 | SILAC ratio, Acadl ([2]; competitor 200 μM): 1.1 | SILAC ratio, Jagn1 ([3]; competitor 200 μM): 2.1 | SILAC ratio Stip1 ([4]; competitor 200 μM): 1.3 | SILAC ratio, Kdsr ([5]; competitor 200 μM): 3.6 | SILAC ratio Syncrip ([6]; competitor 200 μM): 1.2 | SILAC ratio, Bri3bp ([7]; competitor 200 μM): 2.0 | SILAC ratio, Paox ([8]; competitor 200 μM): 7.5 | SILAC ratio Mki67ip ([9]; competitor 200 μM): 1.4 | SILAC ratio, Abhd5 ([10]; competitor 200 μM): 1.3 | SILAC ratio Atp13a1 ([11]; competitor 200 μM): 1.4

O=C(/C=C/c1cccnc1)NCCCCC1CCN(C(=O)c2ccccc2)CC1 [FK-866, reference compound]
SILAC ratio Ftl1 ([1]; competitor 25 μM): 1.6 | SILAC ratio, Acadl ([2]; competitor 25 μM): 12.4 | SILAC ratio, Jagn1 ([3]; competitor 25 μM): 1.1 | SILAC ratio Stip1 ([4]; competitor 25 μM): 1.3 | SILAC ratio, Kdsr ([5]; competitor 25 μM): 1.1 | SILAC ratio Syncrip ([6]; competitor 25 μM): 1.1 | SILAC ratio, Bri3bp ([7]; competitor 25 μM): 1.1 | SILAC ratio, Paox ([8]; competitor 25 μM): 3.2 | SILAC ratio Mki67ip ([9]; competitor 25 μM): 1.0 | SILAC ratio, Abhd5 ([10]; competitor 25 μM): 1.0 | SILAC ratio Atp13a1 ([11]; competitor 25 μM): 1.1

CN1CCN(C(=O)c2c(-c3ccccc3)c3cc([N+](=O)[O-])ccc3n2C)CC1 [KML110, (1-Methyl-5-nitro-3-phenyl-1H-indol-2-yl)(4-methylpiperazin-1-yl)methanone]
SILAC ratio Ftl1 ([1]; competitor 25 μM): 0.9 | SILAC ratio, Acadl ([2]; competitor 25 μM): 1.8 | SILAC ratio, Jagn1 ([3]; competitor 25 μM): 1.5 | SILAC ratio Stip1 ([4]; competitor 25 μM): 1.6 | SILAC ratio, Kdsr ([5]; competitor 25 μM): 1.6 | SILAC ratio Syncrip ([6]; competitor 25 μM): 1.4 | SILAC ratio, Bri3bp ([7]; competitor 25 μM): 1.6 | SILAC ratio, Paox ([8]; competitor 25 μM): 2.9 | SILAC ratio Mki67ip ([9]; competitor 25 μM): 1.5 | SILAC ratio, Abhd5 ([10]; competitor 25 μM): 2.0 | SILAC ratio Atp13a1 ([11]; competitor 25 μM): 1.7

CN1CCN(C(=O)c2[nH]c3ccc([N+](=O)[O-])cc3c2-c2ccccc2)CC1 [MJN228, (4-Methylpiperazin-1-yl)(5-nitro-3-phenyl-1H-indol-2-yl)methanone]
SILAC ratio Ftl1 ([1]; competitor 100 μM): 1.0 | SILAC ratio, Acadl ([2]; competitor 10 μM): 1.4 | SILAC ratio, Acadl ([2]; competitor 25 μM): 1.8 | SILAC ratio, Acadl ([2]; competitor 50 μM): 2.0 | SILAC ratio, Acadl ([2]; competitor 100 μM): 2.4 | SILAC ratio, Jagn1 ([3]; competitor 10 μM): 1.2 | SILAC ratio, Jagn1 ([3]; competitor 25 μM): 1.4 | SILAC ratio, Jagn1 ([3]; competitor 50 μM): 1.6 | SILAC ratio, Jagn1 ([3]; competitor 100 μM): 2.1 | SILAC ratio Stip1 ([4]; competitor 10 μM): 1.2 | SILAC ratio Stip1 ([4]; competitor 25 μM): 1.3 | SILAC ratio Stip1 ([4]; competitor 50 μM): 1.2 | SILAC ratio Stip1 ([4]; competitor 100 μM): 1.9 | SILAC ratio, Kdsr ([5]; competitor 10 μM): 1.1 | SILAC ratio, Kdsr ([5]; competitor 25 μM): 1.5 | SILAC ratio, Kdsr ([5]; competitor 50 μM): 1.3 | SILAC ratio, Kdsr ([5]; competitor 100 μM): 1.7 | SILAC ratio Syncrip ([6]; competitor 10 μM): 0.9 | SILAC ratio Syncrip ([6]; competitor 25 μM): 1.2 | SILAC ratio Syncrip ([6]; competitor 50 μM): 1.3 | SILAC ratio Syncrip ([6]; competitor 100 μM): 1.1 | SILAC ratio, Bri3bp ([7]; competitor 10 μM): 1.3 | SILAC ratio, Bri3bp ([7]; competitor 25 μM): 1.5 | SILAC ratio, Bri3bp ([7]; competitor 50 μM): 1.4 | SILAC ratio, Bri3bp ([7]; competitor 100 μM): 2.1 | SILAC ratio, Paox ([8]; competitor 10 μM): 2.1 | SILAC ratio, Paox ([8]; competitor 25 μM): 3.2 | SILAC ratio, Paox ([8]; competitor 50 μM): 4.5 | SILAC ratio, Paox ([8]; competitor 100 μM): 13.5 | SILAC ratio Mki67ip ([9]; competitor 10 μM): 1.2 | SILAC ratio Mki67ip ([9]; competitor 25 μM): 1.5 | SILAC ratio Mki67ip ([9]; competitor 50 μM): 1.8 | SILAC ratio Mki67ip ([9]; competitor 100 μM): 2.3 | SILAC ratio, Abhd5 ([10]; competitor 10 μM): 1.6 | SILAC ratio, Abhd5 ([10]; competitor 25 μM): 2.2 | SILAC ratio, Abhd5 ([10]; competitor 50 μM): 4.0 | SILAC ratio, Abhd5 ([10]; competitor 100 μM): 14.3 | SILAC ratio Atp13a1 ([11]; competitor 10 μM): 1.3 | SILAC ratio Atp13a1 ([11]; competitor 25 μM): 1.7 | SILAC ratio Atp13a1 ([11]; competitor 50 μM): 2.0 | SILAC ratio Atp13a1 ([11]; competitor 100 μM): 2.2

C=CCN(C)CCCCCCOc1ccc(C(=O)c2ccc(Br)cc2)c(F)c1 [Ro 48-8071, reference compound]
SILAC ratio Ftl1 ([1]; competitor 25 μM): 0.4 | SILAC ratio, Acadl ([2]; competitor 25 μM): 1.3 | SILAC ratio, Jagn1 ([3]; competitor 25 μM): 1.0 | SILAC ratio Stip1 ([4]; competitor 25 μM): 1.0 | SILAC ratio, Kdsr ([5]; competitor 25 μM): 1.6 | SILAC ratio Syncrip ([6]; competitor 25 μM): 0.8 | SILAC ratio, Bri3bp ([7]; competitor 25 μM): 1.1 | SILAC ratio, Paox ([8]; competitor 25 μM): 2.4 | SILAC ratio Mki67ip ([9]; competitor 25 μM): 1.0 | SILAC ratio, Abhd5 ([10]; competitor 25 μM): 1.4 | SILAC ratio Atp13a1 ([11]; competitor 25 μM): 1.2
